According to patent publication US20220265694A1, “COMPOSITIONS AND METHODS FOR TREATING AN INFECTION” (CMPD LICENSING, LLC, priority 2016, published 2022):
Like-named read-outs stand apart in the source and are kept apart here.

Tests used:
[1] = test system: Clostridium difficile; assay: Expected efficacy of antibiotic agents; details: expected efficacy against Clostridium difficile; Gram: anaer
[2] = test system: Escherichia coli; assay: Expected efficacy of antibiotic agents; details: expected efficacy against Escherichia coli; Gram: neg
[3] = test system: Yersinia pestis
[4] = test system: Campylobacter jejuni; assay: Expected efficacy of antibiotic agents; details: expected efficacy against Campylobacter jejuni; Gram: neg
[5] = test system: Pseudomonas fluorescens; assay: Expected efficacy of antibiotic agents; details: expected efficacy against Pseudomonas fluorescens; Gram: neg
[6] = test system: Streptococcus pneumoniae; assay: Expected efficacy of antibiotic agents; details: expected efficacy against Streptococcus pneumoniae; Gram: pos
[7] = test system: Corynebacterium jeikeium; assay: Expected efficacy of antibiotic agents; details: expected efficacy against Corynebacterium jeikeium; Gram: pos
[8] = test system: Brucella species
[9] = test system: Providencia rettgeri; assay: Expected efficacy of antibiotic agents; details: expected efficacy against Providencia rettgeri; Gram: neg
[10] = test system: Chlamydia trachomatis; assay: Expected efficacy of antibiotic agents; details: expected efficacy against Chlamydia trachomatis; Gram: n/a
[11] = test system: Bacteroides fragilis; assay: Expected efficacy of antibiotic agents; details: expected efficacy against Bacteroides fragilis; Gram: anaer
[12] = test system: Neisseria gonorrhoeae; assay: Expected efficacy of antibiotic agents; details: expected efficacy against Neisseria gonorrhoeae; Gram: neg
[13] = test system: Clostridium perfringens
[14] = test system: Staphylococcus aureus (MSSA); assay: Expected efficacy of antibiotic agents; details: expected efficacy against Staphylococcus aureus (MSSA); Gram: pos
[15] = test system: Peptostreptococcus; assay: Expected efficacy of antibiotic agents; details: expected efficacy against Peptostreptococcus; Gram: pos
[16] = test system: Mycoplasma pneumoniae; assay: Expected efficacy of antibiotic agents; details: expected efficacy against Mycoplasma pneumoniae; Gram: n/a
[17] = test system: Bartonella bacilliformis; assay: Expected efficacy of antibiotic agents; details: expected efficacy against Bartonella bacilliformis; Gram: neg

Row | SMILES | Efficacy [1] | Efficacy [2] | Efficacy [3] | Efficacy [4] | Efficacy [5] | Efficacy [6] | Efficacy [7] | Efficacy [8] | Efficacy [9] | Efficacy [10] | Efficacy [11] | Efficacy [12] | Efficacy [13] | Efficacy [14] | Efficacy [15] | Efficacy [16] | Efficacy [17] | Efficacy ([3]; expected efficacy against Yersinia pestis, Gram: neg) | Efficacy ([13]; expected efficacy against Clostridium perfringens, Gram: anaer)
1 | CN[C@H](CC(C)C)C(=O)N[C@H]1C(=O)N[C@@H](CC(N)=O)C(=O)N[C@H]2C(=O)N[C@H]3C(=O)N[C@H](C(=O)N[C@H](C(=O)O)c4cc(O)cc(O)c4-c4cc3ccc4O)[C@H](O)c3ccc(c(Cl)c3)Oc3cc2cc(c3O[C@@H]2O[C@H](CO)[C@@H](O)[C@H](O)[C@H]2O[C@H]2C[C@](C)(N)[C@H](O)[C@H](C)O2)Oc2ccc(cc2Cl)[C@H]1O [Vancomycin] | yes | no | no | no | no | yes | yes | no | no | no | no | no | no | yes | yes | no | no | – | –
2 | CO/N=C(\C(=O)N[C@@H]1C(=O)N2C(C(=O)O)=C(CSc3nc(=O)c(=O)[nH]n3C)CS[C@H]12)c1csc(N)n1 [Ceftriaxone] | no | yes | – | no | – | yes | no | – | yes | no | yes | yes | – | yes | yes | no | – | no | yes
